Patent US20120165310A1, “ETHER DERIVATIVES OF BICYCLIC HETEROARYLS” (NOVARTIS AG, priority 2009, published 2012)

Target: T1, IGF-1R (Homo sapiens, UniProt P08069)
T1 construct: expressed in transfected cells; host or cells: Hek293 (Hek293-IGF1R)
Test: Cellular IGF-1R assay: capture ELISA (MSD) of receptor phosphorylation in Hek293 cells
Format: cell-based
Settings: Hek293-IGF1R cells, 1 h pre-incubation, 10 min IGF stimulation, pIGF1R capture ELISA
Method: (§1) In this assay the activity of the compounds of the invention against Insulin-like growth factor I (IGF-I) induced autophosphorylation of the IGF-IR was determined. The assay was conducted as follows: Compound-mediated inhibition of IGF1R and INSR phosphorylation in Hek293 cells transduced with the corresponding receptors was assessed in a capture ELISA format using the MSD (Meso Scale Discovery) platform. Briefly, 30,000 cells washed and diluted in starvation medium (DMEM high glucose supplemented with 0.1% BSA) were seeded in 90 μL per well into 96-well plates pre-coated with poly-D-lysine (0.1 mg/mL in PBS/O). After 24 h incubation at 37° C. and 5% CO2, dose-response effects were determined with 3-fold serial compound dilutions, starting at 10 μM. The final vehicle concentration is 0.1% DMSO in all wells. Following pre-incubation with compounds for 1 h, receptor phosphorylation was triggered by a 10 min exposure to 1.0 ng/μL IGF for Hek293-IGF1R cells, and 5.0 ng/μL insulin for Hek293-InsR cells. Cell lysis was achieved by addition of 80 μL MSD lysis buffer per aspirated well, incubation on ice for 20 min, and a freeze-thaw cycle. Target phosphorylation was then assessed by transferring volumes corresponding to approx. 6 μg Hek293-IGF1R or 0.6 μg Hek293-InsR lysates to MSD assay plates pre-coated with total-IGF1R or total-InsR Abs, respectively. […] Immune complexes were detected by a SULFO-Tag™-coupled anti-rabbit IgG antibody in the presence of 150 μL MSD read-buffer. Light emission at 620 nm triggered by application of electric current was recorded on a MSD Sectorlmager 6000. Acquired raw data (mean Ru-ECL units) were processed in an Excel analysis template. The plate blank (MSD lysis buffer) was subtracted from all data points. The effect of a particular test compound concentration on receptor phosphorylation was expressed relative to the window defined by ligand-stimulated vs unstimulated control cells (set as 100%). IC50 values [nM] were determined using 4-parametric curve-fitting (XLfit software, V4.3.2).
as §1, with “Compound-mediated” for “In this assay the activity of the compounds of the invention against Insulin-like growth factor I (IGF-I) induced autophosphorylation of the IGF-IR was determined. The assay was conducted as follows: Compound-mediated”, “cells trans-duced” for “cells transduced”, “receptors were” for “receptors was”, “concentration was” for “concentration is”, “for Hek293-IGF1 R” for “for Hek293-IGF1R”, “with total-IGF1 R” for “with total-IGF1R”

T1 sequence (P08069 31-1367): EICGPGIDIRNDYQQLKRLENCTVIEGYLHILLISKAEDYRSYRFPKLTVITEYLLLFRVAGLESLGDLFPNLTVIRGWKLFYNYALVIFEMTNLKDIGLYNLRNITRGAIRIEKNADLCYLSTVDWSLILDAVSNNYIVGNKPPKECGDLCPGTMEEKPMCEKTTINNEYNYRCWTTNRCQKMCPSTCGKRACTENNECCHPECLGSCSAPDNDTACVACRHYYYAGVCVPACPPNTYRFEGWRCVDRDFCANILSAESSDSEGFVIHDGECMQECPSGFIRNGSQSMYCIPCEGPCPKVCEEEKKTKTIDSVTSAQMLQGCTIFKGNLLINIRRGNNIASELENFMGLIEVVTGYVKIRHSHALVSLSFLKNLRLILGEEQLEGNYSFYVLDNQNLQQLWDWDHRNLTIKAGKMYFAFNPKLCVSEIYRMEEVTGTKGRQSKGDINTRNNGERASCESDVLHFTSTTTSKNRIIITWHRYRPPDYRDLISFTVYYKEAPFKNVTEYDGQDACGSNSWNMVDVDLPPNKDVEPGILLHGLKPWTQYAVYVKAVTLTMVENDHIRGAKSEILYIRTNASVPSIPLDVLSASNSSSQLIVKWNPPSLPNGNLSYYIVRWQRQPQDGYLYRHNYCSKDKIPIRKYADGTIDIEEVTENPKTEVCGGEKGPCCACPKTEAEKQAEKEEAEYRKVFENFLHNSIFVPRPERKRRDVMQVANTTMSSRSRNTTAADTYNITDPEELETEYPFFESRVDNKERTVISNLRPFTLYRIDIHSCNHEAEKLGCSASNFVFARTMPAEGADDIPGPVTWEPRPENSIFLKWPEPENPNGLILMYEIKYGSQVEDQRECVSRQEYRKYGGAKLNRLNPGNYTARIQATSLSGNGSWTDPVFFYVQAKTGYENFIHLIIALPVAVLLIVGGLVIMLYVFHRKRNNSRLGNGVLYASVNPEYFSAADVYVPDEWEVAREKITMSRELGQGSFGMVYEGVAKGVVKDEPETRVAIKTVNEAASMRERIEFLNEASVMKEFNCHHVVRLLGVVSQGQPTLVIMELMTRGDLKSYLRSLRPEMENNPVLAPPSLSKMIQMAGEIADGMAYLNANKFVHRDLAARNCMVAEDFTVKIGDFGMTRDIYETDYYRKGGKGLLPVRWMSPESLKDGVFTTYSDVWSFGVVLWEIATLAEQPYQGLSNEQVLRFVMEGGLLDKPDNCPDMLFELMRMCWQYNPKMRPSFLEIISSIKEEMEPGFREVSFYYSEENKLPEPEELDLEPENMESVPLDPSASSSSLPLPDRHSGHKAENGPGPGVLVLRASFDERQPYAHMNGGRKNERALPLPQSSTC

| Structure (SMILES) | IC50 [nM] |
| --- | --- |
| Cc1cccc(NC[C@H]2C[C@@H](n3cc(-c4cccc(OCC56CCC(CC5)O6)c4)c4c(N)ncnc43)C2)n1 (relative stereo) [Example 194, 7-{cis-3-[(6-Methyl-pyridin-2-ylamino)-methyl]-cyclobutyl}-5-[3-(7-oxa-bicyclo[2.2.1]hept-1-ylmethoxy)-phenyl]-7H-pyrrolo[2,3-d]pyrimidin-4-ylamine] | 83 |
| CN1CCN([C@H]2C[C@@H](n3cc(-c4cccc(OCC56CCC(CC5)O6)c4)c4c(N)ncnc43)C2)CC1=O (relative stereo) [Example 195, cis-4-(3-{4-Amino-5-[3-(7-oxa-bicyclo[2.2.1]hept-1-ylmethoxy)-phenyl]-pyrrolo[2,3-d]pyrimidin-7-yl}-cyclobutyl)-1-methyl-piperazin-2-one] | 385 |
| CC1CCC(COc2cccc(-c3cn(C4CC(CN5CCC5)C4)c4ncnc(N)c34)c2)O1 (single isomer, unassigned) [Example 6, cis-(RR and SS)-7-(3-azetidin-1-ylmethyl-cyclobutyl)-5-[3-(5-methyl-tetrahydro-furan-2-ylmethoxy)-phenyl]-7H-pyrrolo[2,3-d]pyrimidin-4-ylamine] | 30 |
| CC1CCC(COc2cccc(-c3cn(C4CC(CN5CCC5)C4)c4ncnc(N)c34)c2)O1 (single isomer, unassigned) [Example 7, cis-(RR and SS)-7-(3-azetidin-1-ylmethyl-cyclobutyl)-5-[3-(5-methyl-tetrahydro-furan-2-ylmethoxy)-phenyl]-7H-pyrrolo[2,3-d]pyrimidin-4-ylamine] | 95 to 117 |
| CC1(C)CCC(COc2cccc(-c3cn(C4CC(CN5CCC(F)C5)C4)c4ncnc(N)c34)c2)O1 (single isomer, unassigned) [Example 39] | 224 |
| CC1(C)CCC(COc2cccc(-c3cn(C4CC(CN5CCC(F)C5)C4)c4ncnc(N)c34)c2)O1 (single isomer, unassigned) [Example 45] | 35 |
| CC1(C)CCC(COc2cccc(-c3cn(C4CC(CN5CCC(F)C5)C4)c4ncnc(N)c34)c2)O1 (single isomer, unassigned) [Example 46] | 15 |
| CC1(C)CCC(COc2cccc(-c3cn([C@H]4C[C@@H](CN5CCC(F)(F)CC5)C4)c4ncnc(N)c34)c2)O1 (single isomer, unassigned) [Example 54] | 45 to 120 |
| CC1(C)CCC(COc2cccc(-c3cn([C@H]4C[C@@H](CN5CCC(F)(F)CC5)C4)c4ncnc(N)c34)c2)O1 (single isomer, unassigned) [Example 55] | 22 to 38 |
| CC1(C)CCC(COc2cccc(-c3cn([C@H]4C[C@@H](CN5CCC(F)CC5)C4)c4ncnc(N)c34)c2)O1 (single isomer, unassigned) [Example 59, 7-[cis-3-(4-fluoro-piperidin-1-ylmethyl)-cyclobutyl]-5-[3-(5,5-dimethyl-tetrahydro-furan-2-ylmethoxy)-phenyl]-7H-pyrrolo[2,3-d]pyrimidin-4-ylamine] | 18 |
| CC1(C)CCC(COc2cccc(-c3cn([C@H]4C[C@@H](CN5CCS(=O)(=O)CC5)C4)c4ncnc(N)c34)c2)O1 (single isomer, unassigned) [Example 66] | < 4 |
| CC1(C)CCC(COc2cccc(-c3cn([C@H]4C[C@@H](CN5CCS(=O)(=O)CC5)C4)c4ncnc(N)c34)c2)O1 (single isomer, unassigned) [Example 67] | 15 |
| CC1(C)CCC(COc2cccc(-c3cn([C@H]4C[C@@H](CN5CCC(F)CC5)C4)c4ncnc(N)c34)c2)O1 (single isomer, unassigned) [Example 74, 5-[3-(5,5-dimethyl-tetrahydro-furan-2-ylmethoxy)-phenyl]-7-[cis-3-(4-fluoro-piperidin-1-ylmethyl)-cyclobutyl]-7H-pyrrolo[2,3-d]pyrimidin-4-ylamine] | 52 |

Other lines, results leading:

| IC50 [nM] | Structure (SMILES) |
| --- | --- |
| 192 | CN1CCN([C@H]2C[C@H](n3cc(-c4cccc(OCC56CCC(CC5)O6)c4)c4c(N)ncnc43)C2)CC1=O (relative stereo) [Example 196, 4-(trans-3-{4-Amino-5-[3-(7-oxa-bicyclo[2.2.1]hept-1-ylmethoxy)-phenyl]-pyrrolo[2,3-d]pyrimidin-7-yl}cyclobutyl)-1-methyl-piperazin-2-one] |
| 115 to 194 | CN1CCN(C[C@H]2C[C@@H](n3cc(-c4cccc(OCC56CCC(CC5)O6)c4)c4c(N)ncnc43)C2)CC1=O (relative stereo) [Example 210, 4-(cis-3-{4-Amino-5-[3-(7-oxa-bicyclo[2.2.1]hept-1-ylmethoxy)-phenyl]-pyrrolo[2,3-d]pyrimidin-7-yl}-cyclobutylmethyl)-1-methyl-piperazin-2-one] |
| 411 | Nc1ncnc2c1c(-c1cccc(OCC34CCC(CC3)O4)c1)cn2[C@H]1C[C@@H](O)C1 (relative stereo) [Example 221, cis-3-{4-amino-5-[3-(7-oxa-bicyclo[2.2.1]hept-1-ylmethoxy)-phenyl]-pyrrolo[2,3-d]pyrimidin-7-yl}cyclobutanol] |
| 308 | CC(=O)N[C@H]1C[C@@H](n2cc(-c3cccc(OCC45CCC(CC4)O5)c3)c3c(N)ncnc32)C1 (relative stereo) [Example 223, N-(cis-3-{4-amino-5-[3-(7-oxa-bicyclo[2.2.1]hept-1-ylmethoxy)-phenyl]-pyrrolo[2,3-d]pyrimidin-7-yl}-cyclobutyl)-acetamide] |
| 17 | Nc1ncnc2c1c(-c1cccc(OCC34CCC(CC3)O4)c1)cn2[C@H]1C[C@@H](N2CCS(=O)(=O)CC2)C1 (relative stereo) [Example 230, 7-[cis-3-(1,1-dioxo-thiomorpholin-4-yl)-cyclobutyl]-5-[3-(7-oxa-bicyclo[2.2.1]hept-1-ylmethoxy)-phenyl]-7H-pyrrolo[2,3-d]pyrimidin-4-ylamine] |
| 35 to 38 | Nc1ncnc2c1c(-c1cccc(OCC34CCC(CC3)O4)c1)cn2[C@H]1C[C@@H](N2CC[S+]([O-])CC2)C1 (relative stereo) [Example 232, 5-[3-(7-Oxa-bicyclo[2.2.1]hept-1-ylmethoxy)-phenyl]-7-[cis-3-(1-oxo-thiomorpholin-4-yl)-cyclobutyl]-7H-pyrrolo[2,3-d]pyrimidin-4-ylamine] |
| 263 | Nc1ncnc2c1c(-c1cccc(OCC34CCC(CC3)O4)c1)cn2C1CC(O)(CN2CCCC2CO)C1 (single isomer, unassigned) [Example 200] |
| 390 | Nc1ncnc2c1c(-c1cccc(OCC34CCC(CC3)O4)c1)cn2C1CC(O)(CN2CCCC2CO)C1 (single isomer, unassigned) [Example 202] |
| 501 | Nc1ncnc2c1c(-c1cccc(OCC34CCC(CC3)O4)c1)cn2C1CC(O)(CN2CCC(O)C2)C1 (single isomer, unassigned) [Example 203] |
| 53 | Nc1ncnc2c1c(-c1cccc(OCC34CCC(CC3)O4)c1)cn2C1CC(O)(CN2CCC(O)C2)C1 (single isomer, unassigned) [Example 204] |
| 288 | Nc1ncnc2c1c(-c1cccc(OCC34CCC(CC3)O4)c1)cn2C1CC(O)(CN2CCC(O)C2)C1 (single isomer, unassigned) [Example 206] |
| 327 | Nc1ncnc2c1c(-c1cccc(OCC34CCC(CC3)O4)c1)cn2C1CC(O)(CN2CCC(O)C2)C1 (single isomer, unassigned) [Example 207] |
| 60 | Nc1ncnc2c1c(-c1cccc(OCC34CCC(CC3)O4)c1)cn2C1CC(O)(CN2CCCC2CO)C1 (single isomer, unassigned) [Example 209] |
